Data set [1] addresses Aldo-keto reductase family 1 member B1 (Homo sapiens, UniProt P15121). As to the kind of experiment: Inhibition of human recombinant ALDR1.
Data set [2] can be described thus: Antiproliferative activity against human WI-38 cells assessed as cell growth inhibition measured after 72 hrs by MTT assay. The class given is toxicity, cell-based.
Another data set concerns L02. As to the kind of experiment: Antiproliferative activity against human HL7702 cells assessed as cell growth inhibition measured after 72 hrs by MTT assay. In kind it is functional, cell-based. As to conditions: L02, 72 h.
In another data set the test system is T-24. Nature of the data set: Antiproliferative activity against human T-24 cells assessed as inhibition of cell growth incubated for 72 hrs by MTT assay. In kind it is functional, cell-based. As to conditions: T-24, 72 h. Background: Tetrazolium dyes change colour on reduction, which living cells bring about.
A further data set deals with MGC-803. Nature of the data set: Antiproliferative activity against human MGC-803 cells assessed as inhibition of cell growth incubated for 72 hrs by MTT assay. In kind it is functional, cell-based. Particulars: MGC-803, 72 h.
Data set [3] concerns HeLa. As to the kind of experiment: Antitumor activity against human HeLa cells assessed as cell growth inhibition incubated for 72 hrs by MTT assay. In kind it is functional, cell-based.
Another data set has as its system Huh-7. Nature of the data set: Antiproliferative activity against human Huh-7 cells assessed as reduction in cell viability incubated for 48 hrs by MTT assay. The class given is functional, cell-based. Particulars: Huh-7, 48 h.
The target in data set [4] is Mitogen-activated protein kinase 3 (Homo sapiens, UniProt P27361). As to the kind of experiment: Inhibition of ERK1 (unknown origin).
Data set [5] concerns the target Mitogen-activated protein kinase 6 (Homo sapiens, UniProt Q16659). As to the kind of experiment: Inhibition of ERK3 (unknown origin).
Data set [6] concerns the target Mitogen-activated protein kinase 1 (Homo sapiens, UniProt P28482). As to the kind of experiment: Inhibition of ERK2 (unknown origin).
Data set [7] relates to CCRF-CEM. Nature of the data set: Antiproliferative activity against human CEM cells assessed as reduction in cell viability measured after 3 to 4 days by MTT assay. In kind it is functional, cell-based.
The nature of data set [8]: Antiproliferative activity against human Molt 4/C8 cells assessed as reduction in cell growth measured after 3 to 4 days by MTT assay. In kind it is functional, cell-based. As to conditions: Molt4/C8.
Data set [9] has as its system HeLa. Nature of the data set: Antiproliferative activity against human HeLa cells assessed as reduction in cell viability measured after 3 to 4 days by MTT assay. In kind it is functional, cell-based.
Data set [10] has as its system A549. As to the kind of experiment: Antiproliferative activity against human A549 cells assessed as reduction in cell viability measured after 3 to 4 days by MTT assay. In kind it is functional, cell-based.
The next data set has as its system HepG2. Nature of the data set: Antiproliferative activity against human HepG2 cells assessed as reduction in cell viability measured after 3 to 4 days by MTT assay. The class given is functional, cell-based.
A short description of data set [11]: Antiproliferative activity against human WI-38 cells assessed as reduction in cell growth measured after 3 to 4 days by MTT assay. The class given is toxicity, cell-based.
Data set [12] deals with MCF7. As to the kind of experiment: Antiproliferative activity against human MCF7 cells assessed as reduction in cell growth measured after 3 to 4 days by MTT assay. The class given is functional, cell-based.
Data set [13] concerns SW-620. As to the kind of experiment: Antiproliferative activity against human SW-620 cells assessed as reduction in cell growth measured after 3 to 4 days by MTT assay. In kind it is functional, cell-based.
Another data set has as its system L1210. As to the kind of experiment: Antiproliferative activity against mouse L1210 cells assessed as reduction in cell viability measured after 3 to 4 days by MTT assay. The class given is functional, cell-based.
A short description of data set [14]: Antiproliferative activity against mouse Ba/F3 EML4-ALK cells assessed as inhibition of cell growth. In kind it is functional, cell-based.
Data set [15] concerns CCRF-CEM. Nature of the data set: Growth inhibition of human CCRF-CEM cells. In kind it is functional, cell-based. As to conditions: pooled result: one value given for 60 cell lines, strains, targets or settings.
Another data set deals with Caco-2. As to the kind of experiment: Growth inhibition of human Caco-2 cells measured after 48 hrs by SRB assay. The class given is functional. (In general: Sulforhodamine B stains cellular protein and so reports cell mass.)
A further data set relates to AGS. Nature of the data set: Growth inhibition of human AGS cells measured after 48 hrs by SRB assay. The class given is functional.
The nature of data set [16]: Cytotoxicity against African green monkey Vero cells incubated for 48 hrs by SRB colorimetric assay. In kind it is toxicity, cell-based, Chlorocebus sabaeus.
Data set [17] deals with MCF7. Nature of the data set: Antiproliferative activity against human MCF7 cells assessed as inhibition of cell growth at 0.1 uM incubated for 24 hrs by SRB assay relative to control. In kind it is functional. Also noted: scale not given: the % may be the effect or the level left.
For the next data set, the system named is MDA-MB-231. Nature of the data set: Antiproliferative activity against human MDA-MB-231 cells assessed as inhibition of cell growth at 0.1 uM incubated for 24 hrs by SRB assay relative to control. The class given is functional. More on the design: scale not given: the % may be the effect or the level left.
The subject of data set [18] is HCT-116. As to the kind of experiment: Antiproliferative activity against human HCT-116 cells assessed as inhibition of cell growth at 0.1 uM incubated for 24 hrs by SRB assay relative to control. In kind it is functional. Also noted: scale not given: the % may be the effect or the level left.
The subject of the next data set is KG-1. Nature of the data set: Antiproliferative activity against human KG-1 cells assessed as reduction in cell viability incubated for 72 hrs by MTT assay. In kind it is functional, cell-based. Particulars: KG-1, 72 h.
In data set [19] the test system is A549. As to the kind of experiment: Antiproliferative activity against human A549 cells assessed as inhibition of cell growth at 10 uM relative to control. In kind it is functional. Also noted: scale not given: the % may be the effect or the level left.
The subject of data set [20] is MCF7. Nature of the data set: Cytotoxicity against human MCF7 cells assessed as reduction in cell growth incubated for 24 hrs by MTT assay. In kind it is functional, cell-based. As to conditions: MCF7, 24 h.
The subject of data set [21] is HCT-116. As to the kind of experiment: Antiproliferative activity against human HCT-116 cells assessed as reduction in cell viability incubated for 72 hrs by MTT assay. In kind it is functional, cell-based. Particulars: HCT-116, 72 h.
In data set [22] the test system is SW-620. Nature of the data set: Antiproliferative activity against human SW620 cells assessed as reduction in cell viability incubated for 72 hrs by MTT assay. The class given is functional, cell-based. Particulars: SW-620, 72 h.

SMILES strings stand for the structures. Where only a bound is given, the exact number is not on record here.

Chain of Mitogen-activated protein kinase 6 (Q16659 whole entry): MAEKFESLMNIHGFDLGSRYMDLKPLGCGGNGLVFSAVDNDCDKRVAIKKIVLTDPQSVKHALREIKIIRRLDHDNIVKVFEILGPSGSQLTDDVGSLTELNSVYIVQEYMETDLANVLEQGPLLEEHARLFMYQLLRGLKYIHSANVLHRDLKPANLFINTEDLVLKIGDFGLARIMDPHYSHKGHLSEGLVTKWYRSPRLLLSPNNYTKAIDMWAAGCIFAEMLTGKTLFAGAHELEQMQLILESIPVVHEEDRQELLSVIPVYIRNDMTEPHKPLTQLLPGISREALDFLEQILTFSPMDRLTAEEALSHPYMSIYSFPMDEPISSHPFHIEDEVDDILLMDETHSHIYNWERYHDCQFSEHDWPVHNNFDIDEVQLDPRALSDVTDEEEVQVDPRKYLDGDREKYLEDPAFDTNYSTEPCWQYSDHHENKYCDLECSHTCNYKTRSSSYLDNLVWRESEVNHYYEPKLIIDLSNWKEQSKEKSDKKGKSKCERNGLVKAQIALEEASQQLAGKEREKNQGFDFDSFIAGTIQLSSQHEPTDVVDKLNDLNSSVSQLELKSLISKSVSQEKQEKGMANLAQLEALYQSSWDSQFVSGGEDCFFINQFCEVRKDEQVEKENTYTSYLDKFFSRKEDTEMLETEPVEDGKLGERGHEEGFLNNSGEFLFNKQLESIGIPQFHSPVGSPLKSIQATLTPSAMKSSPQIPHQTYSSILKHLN
Chain of Mitogen-activated protein kinase 1 (P28482 whole entry): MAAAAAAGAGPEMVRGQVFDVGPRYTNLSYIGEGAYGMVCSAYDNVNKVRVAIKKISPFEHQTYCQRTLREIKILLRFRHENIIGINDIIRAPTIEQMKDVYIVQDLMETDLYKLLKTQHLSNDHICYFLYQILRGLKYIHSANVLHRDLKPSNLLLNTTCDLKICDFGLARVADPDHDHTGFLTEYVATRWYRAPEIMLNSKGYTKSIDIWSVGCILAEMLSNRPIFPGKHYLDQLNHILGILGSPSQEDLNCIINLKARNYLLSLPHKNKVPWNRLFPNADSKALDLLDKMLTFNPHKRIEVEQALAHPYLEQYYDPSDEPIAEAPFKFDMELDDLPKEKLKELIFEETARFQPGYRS
Chain of Mitogen-activated protein kinase 3 (P27361 whole entry): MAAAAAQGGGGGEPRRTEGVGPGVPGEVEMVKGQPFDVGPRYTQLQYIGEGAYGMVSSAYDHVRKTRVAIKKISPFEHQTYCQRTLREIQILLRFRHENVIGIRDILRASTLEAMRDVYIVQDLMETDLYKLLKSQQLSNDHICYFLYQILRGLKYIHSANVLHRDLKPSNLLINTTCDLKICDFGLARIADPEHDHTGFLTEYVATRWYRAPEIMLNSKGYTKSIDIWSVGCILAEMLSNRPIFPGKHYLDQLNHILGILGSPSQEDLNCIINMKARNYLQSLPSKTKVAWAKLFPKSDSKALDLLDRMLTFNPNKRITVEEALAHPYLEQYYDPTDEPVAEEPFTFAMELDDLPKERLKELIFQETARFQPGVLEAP

For the compound `O=C(c1ccc(O)cc1)c1ncc(-c2ccc(O)cc2)nc1C(=O)c1ccc(O)cc1`, in [1], the IC50 was found to be 6.47 µM.
For the compound `Clc1ccc(-c2nc3oc4ccccc4c3nc2-c2ccc(Cl)cc2)cc1`, in data set [2], the IC50 at 72 h was greater than 40 µM. Moreover, the IC50 in the data set on L02 is 25.4 µM; in the data set with T-24, 12.5 µM; in the data set with MGC-803 it was 20.2 µM; in the data set on HeLa [3], 10 µM.
As for `N=C(NC(=O)c1nc(Cl)c(N)nc1N)NC(=O)c1c(Cl)cccc1Cl`, in the data set on Huh-7, the IC50 stood at 12.8 µM.
For `CN1CCN([C@H]2C[C@@H](c3nc(-c4ccc5ccc(-c6ccccc6)nc5c4)c4c(N)nccn43)C2)CC1`, the IC50 in data set [4], in [5] and in data set [6] was 0.21 µM in each case.
As to `O=C(Nc1ccc(Br)cc1)Nc1ccc(Oc2cnc(C(=O)NC3CCCC3)cn2)cc1`, the IC50 in the data set on CCRF-CEM [7] is greater than 250 µM; in data set [8], greater than 250 µM; in the data set with HeLa [9], 0.6 µM; in the data set on A549 [10], 0.9 µM; in the data set with HepG2 it was 0.7 µM; in data set [11], greater than 100 µM. Further, the IC50 in the data set with MCF7 [12] is greater than 250 µM; in the data set on SW-620 [13] it was 39.6 µM; in the data set with L1210, 87 µM.
In the case of `CCc1nc(C(N)=O)c(Nc2ccc3c(c2)CCN(C2CC=CC2)CC3)nc1NC1CCOCC1`, the IC50 in data set [14] was found to be 0.0012 µM.
`c1cn2cc(-c3ccc4ncn(C5CCCCC5)c4c3)nc(-c3ccc4ncn(C5CCCCC5)c4c3)c2n1` gave an IC50 in the data set with CCRF-CEM [15] of 0.81 µM.
For `COC(=O)c1sc2nccnc2c1Nc1ccc(OC)c(OC)c1`, the GI50 came to 8 µM with Caco-2 and 9.2 µM in the data set with AGS. This compound also displayed an IC50 at 48 h in [16] of 53 µM.
Take `Nc1nc(N2CCCC2CC2CCCC2CO)cnc1-c1cccc(Cl)c1Cl` (configuration not stated): the Activity in the data set with MCF7 [17] turned out to be 30%; in the data set with MDA-MB-231, 32%; in the data set with HCT-116 [18], 27%.
As for `O=S(=O)(c1cn(CCF)cn1)n1ccc2ncc(-c3cn[nH]c3)nc21`, in the data set on KG-1, the IC50 is 0.0291 µM.
As for `Cc1cc(=O)oc2cc(Oc3nc(-c4ccc(Cl)cc4)cn4c(-c5ccc(Cl)cc5)cnc34)ccc12`, the Activity in the data set with A549 [19] is listed as 90.12%.
In the case of `CN(C)CCNc1ccc2c3c(cccc13)-c1nc(C#N)c(C#N)nc1-2`, the IC50 with MCF7 [20] came to 4.6 µM.
On to `O=C(Nc1ccc2ccccc2c1)c1c(Cc2ccccc2)n2nc3ccccc3c2c(=O)n1C1CC1`, for which the results for the IC50 in the data set on HCT-116 [21] and in the data set with SW-620 [22] were 1.3 µM and 1.8 µM, respectively.

Broadly, the IC50 is the point on the concentration scale where inhibition reaches its midpoint. By GI50 is commonly meant the concentration giving 50% growth inhibition.

These data come from ChEMBL document CHEMBL5625161, “Pharmacological activity and mechanism of pyrazines” (Eur J Med Chem, 2023).
